Structures can show the parent of a compound that is named as a salt. Where two headings read alike, the source gives them in different places.
What was measured:
[1] = test system: erythroid progenitor cells (EPCs); assay: Fetal hemoglobin (HbF) ELISA in day 7 erythroid progenitor cells; assay type: cell-based, human; settings: Homo sapiens, Erythroid progenitor cell, HbF ELISA, day 7 EPCs, 5 days; read-out: EPC ELISA (pEC50 category) (converted);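 also: for fetal hemoglobin induction normalized to vehicle-treated cells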
Method in brief: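 Day 7 EPCs from human bone marrow CD34+ cells were plated at 1,000 cells/well in media with 3 U/mL rhEPO. They were exposed to a 22-point dilution ([…]) for 5 days at 37 °C. Lysate HbF was measured by sandwich ELISA (OD450) and normalized to DMSO control wells.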

DNMT1 = DNMT1 (Homo sapiens, UniProt P26358); assay: DNMT1 biochemical activity, breaklight assay and/or SPA assay
DNMT1, sequence (P26358 whole entry, looked up): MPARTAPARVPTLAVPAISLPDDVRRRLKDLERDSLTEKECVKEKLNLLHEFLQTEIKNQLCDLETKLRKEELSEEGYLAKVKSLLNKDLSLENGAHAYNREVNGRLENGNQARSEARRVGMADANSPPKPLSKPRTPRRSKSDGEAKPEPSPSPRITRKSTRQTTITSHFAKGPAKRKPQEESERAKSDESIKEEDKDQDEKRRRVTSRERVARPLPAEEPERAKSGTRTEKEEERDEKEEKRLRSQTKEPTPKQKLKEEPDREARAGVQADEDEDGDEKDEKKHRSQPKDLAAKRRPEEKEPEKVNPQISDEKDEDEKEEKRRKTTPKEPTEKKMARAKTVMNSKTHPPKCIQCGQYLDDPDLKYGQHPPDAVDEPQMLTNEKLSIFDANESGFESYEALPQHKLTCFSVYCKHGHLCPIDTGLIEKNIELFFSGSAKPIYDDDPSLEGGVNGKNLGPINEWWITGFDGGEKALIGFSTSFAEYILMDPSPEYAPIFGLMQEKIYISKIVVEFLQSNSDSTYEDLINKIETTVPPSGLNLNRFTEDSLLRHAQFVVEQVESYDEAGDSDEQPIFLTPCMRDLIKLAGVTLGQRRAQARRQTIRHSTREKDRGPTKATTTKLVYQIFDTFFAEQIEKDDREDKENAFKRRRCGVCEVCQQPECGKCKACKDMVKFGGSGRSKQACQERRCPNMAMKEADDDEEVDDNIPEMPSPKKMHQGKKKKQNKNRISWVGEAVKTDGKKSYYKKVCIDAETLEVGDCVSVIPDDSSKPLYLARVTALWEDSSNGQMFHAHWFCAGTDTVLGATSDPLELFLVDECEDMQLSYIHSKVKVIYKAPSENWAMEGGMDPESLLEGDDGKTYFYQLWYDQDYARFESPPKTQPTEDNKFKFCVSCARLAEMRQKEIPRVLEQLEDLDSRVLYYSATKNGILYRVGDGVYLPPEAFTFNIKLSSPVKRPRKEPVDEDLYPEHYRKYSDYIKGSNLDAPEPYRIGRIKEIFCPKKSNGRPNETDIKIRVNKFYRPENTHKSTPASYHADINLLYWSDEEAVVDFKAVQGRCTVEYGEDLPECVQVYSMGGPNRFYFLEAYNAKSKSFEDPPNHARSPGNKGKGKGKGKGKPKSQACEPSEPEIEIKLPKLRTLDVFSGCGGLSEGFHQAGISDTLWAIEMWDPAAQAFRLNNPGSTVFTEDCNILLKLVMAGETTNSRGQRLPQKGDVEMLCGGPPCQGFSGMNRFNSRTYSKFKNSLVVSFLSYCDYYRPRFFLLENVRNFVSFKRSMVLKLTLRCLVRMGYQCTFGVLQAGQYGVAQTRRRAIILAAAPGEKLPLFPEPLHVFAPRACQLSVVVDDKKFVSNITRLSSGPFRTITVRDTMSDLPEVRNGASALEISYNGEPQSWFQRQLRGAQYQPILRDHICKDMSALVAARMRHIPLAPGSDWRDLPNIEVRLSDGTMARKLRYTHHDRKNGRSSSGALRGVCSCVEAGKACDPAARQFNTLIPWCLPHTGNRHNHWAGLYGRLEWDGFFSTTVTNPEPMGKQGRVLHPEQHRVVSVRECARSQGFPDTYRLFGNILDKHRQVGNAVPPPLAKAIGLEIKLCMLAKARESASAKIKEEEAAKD

[2] = binned activity in either the breaklight or the SPA assay, read-out: DNMT1 BioChemical (pIC50 category) (converted)
[3] = binned activity in either the breaklight or the SPA assay

EC50 [1] [nM]	IC50 (DNMT1; [2]) [nM]	DNMT1 BioChemical (pIC50 category) (DNMT1; [3])	IC50 (DNMT1; breaklight assay and/or SPA assay, repeated experimental runs, read-out: average pIC50 against DNMT1 (converted)) [nM]	SMILES
< 316		D (Category D: ≥6.5)		CCc1c(C#N)c(SC(C(N)=O)c2ccccc2)nc(N2CCC(OC(=O)[C@@H](N)C(C)C)CC2)c1C#N (stereo partly drawn) [Example 274, 1-(6-((2-Amino-2-oxo-1-phenylethyl)thio)-3,5-dicyano-4-ethylpyridin-2-yl)piperidin-4-yl (2S)-2-amino-3-methylbutanoate]
1000 to 31600		D (Category D: ≥6.5)		CCc1c(C#N)c(S[C@@H](C(N)=O)c2ccccc2)nc(N2CCO[C@H](CNC(=O)CO)C2)c1C#N [Example 599, N-(((R)-4-(6-(((R)-2-amino-2-oxo-1-phenylethyl)thio)-3,5-dicyano-4-ethylpyridin-2-yl)morpholin-2-yl)methyl)-2-hydroxyacetamide]
< 316		D (Category D: ≥6.5)		CCc1c(C#N)c(SC(C(N)=O)c2ccccc2)nc(N(C)CC(=O)N2CCNCC2)c1C#N (centres unmarked) [Example 622, 2-((3,5-dicyano-4-ethyl-6-(methyl(2-oxo-2-(piperazin-1-yl)ethyl)amino)pyridin-2-yl)thio)-2-phenylacetamide]
316 to 1000	1000 to 31600			CCc1c(C#N)c(SC(C(N)=O)c2ccccc2)nc(N2CCC(C#N)CC2)c1C#N (centres unmarked) [Example 319, 2-((3,5-Dicyano-6-(4-cyanopiperidin-1-yl)-4-ethylpyridin-2-yl)thio)-2-phenylacetamide]
< 316		D (Category D: ≥6.5)		CC1(N)CCN(c2nc(SC(C(N)=O)c3ccccc3)c(C#N)c(C3CC3)c2C#N)CC1 (centres unmarked) [Example 321, 2-((6-(4-Amino-4-methylpiperidin-1-yl)-3,5-dicyano-4-cyclopropvlpyridin-2-yl)thio)-2-phenylacetamide]
1000 to 31600	1000 to 31600			CCc1c(C#N)c(SC(C(N)=O)c2ccccc2)nc(N2CC[C@@H](OP(=O)(O)O)C2)c1C#N (stereo partly drawn) [Example 416, (3R)-1-(6-((2-amino-2-oxo-1-phenylethyl)thio)-3,5-dicyano-4-ethylpyridin-2-yl)pyrrolidin-3-yl dihydrogen phosphate]
< 316		D (Category D: ≥6.5)		CCc1c(C#N)c(SC(C(N)=O)c2ccccc2)nc(N(C)CC(=O)N2CC[C@@H](O)C2)c1C#N (stereo partly drawn) [Example 613, 2-((3,5-dicyano-4-ethyl-6-((2-((R)-3-hydroxypyrrolidin-1-yl)-2-oxoethyl)(methyl)amino)pyridin-2-yl)thio)-2-phenylacetamide]
< 316		D (Category D: ≥6.5)		CCc1c(C#N)c(SC(C(N)=O)c2ccccc2)nc(N2CCC(N3CC(OC)C3)CC2)c1C#N (centres unmarked) [Example 697, 2-((3,5-dicyano-4-ethyl-6-(4-(3-methoxyazetidin-1-yl)piperidin-1-yl)pyridin-2-yl)thio)-2-phenylacetamide]
< 316		D (Category D: ≥6.5)		CCc1c(C#N)c(SC(C(N)=O)c2ccccc2)nc(N2CCC[C@@H](CNCC(C)(C)C)C2)c1C#N (stereo partly drawn) [Example 568, 2-((3,5-dicyano-4-ethyl-6-((S)-3-((neopentylamino)methyl)piperidin-1-yl)pyridin-2-yl)thio)-2-phenylacetamide]

More lines, now with the values behind:

SMILES	EC50 [1] [nM]	IC50 (DNMT1; [2]) [nM]	DNMT1 BioChemical (pIC50 category) (DNMT1; [3])	IC50 (DNMT1; breaklight assay and/or SPA assay, repeated experimental runs, read-out: average pIC50 against DNMT1 (converted)) [nM]
CCc1c(C#N)c(SCc2ccc(CNC3CCNC3=O)cc2)nc(N2CCCN(C)CC2)c1C#N (centres unmarked) [Example 385, 4-Ethyl-2-(4-methyl-1,4-diazepan-1-yl)-6-((4-(((2-oxopyrrolidin-3-yl)amino)methyl)benzyl)thio)pyridine-3,5-dicarbonitrile]	> 31600	316 to 1000		
CCc1c(C#N)c(SC(C(N)=O)c2ccccc2)nc(N(C)CC(=O)NO)c1C#N (centres unmarked) [Example 679, 2-((6-((2-amino-2-oxo-1-phenylethyl)thio)-3,5-dicyano-4-ethylpyridin-2-yl)(methyl)amino)-N-hydroxyacetamide]	316 to 1000		D (Category D: ≥6.5)	
N#Cc1c(SC(C(N)=O)c2ccncc2)nc(N2CCNCC2)c(C#N)c1C1CC1 (centres unmarked) [Example 30, 2-((3,5-dicyano-4-cyclopropyl-6-(piperazin-1-yl)pyridin-2-yl)thio)-2-(pyridin-4-yl)acetamide]	> 31600	316 to 1000		
CCc1c(C#N)c(S[C@@H](C(N)=O)c2ccc(Cl)cc2)nc(N2CC[C@H](O)C2)c1C#N [Example 424, (R)-2-(4-chlorophenyl)-2-((3,5-dicyano-4-ethyl-6-((S)-3-hydroxypyrrolidin-1-yl)pyridin-2-yl)thio)acetamide]	316 to 1000		D (Category D: ≥6.5)	
CCc1c(C#N)c(SCc2ccc(N(C)S(C)(=O)=O)cc2)nc(N2CCC(NC(C)C)CC2)c1C#N [Example 556, N-(4-(((3,5-dicyano-4-ethyl-6-(4-(isopropylamino)piperidin-1-yl)pyridin-2-yl)thio)methyl)phenyl)-N-methylmethanesulfonamide]	< 316		D (Category D: ≥6.5)	
CCc1c(C#N)c(SCc2ccc(CNC(=O)[C@@H](C)N)cc2)nc(N2CCCN(C)CC2)c1C#N [Example 98, (R)-2-Amino-N-(4-(((3,5-dicyano-4-ethyl-6-(4-methyl-1,4-diazepan-1-yl)pyridin-2-yl)thio)methyl)benzyl)propanamide]	> 31600		D (Category D: ≥6.5)	
CCc1c(C#N)c(SCc2ccc3c(c2)CCN(C(C)=O)C3)nc(N(C)C)c1C#N [Example 92, 2-(((2-Acetyl-1,2,3,4-tetrahydroisoquinolin-6-yl)methyl)thio)-6-(dimethylamino)-4-ethylpyridine-3,5-dicarbonitrile]	1000 to 31600	316 to 1000		≥ 1000
CCc1c(C#N)c(SCc2ccc(N(C)S(C)(=O)=O)cc2)nc(N(C)CCN(C)CCOC)c1C#N [Example 461]	< 316		D (Category D: ≥6.5)	
CCc1c(C#N)c(SC(C(N)=O)c2ccsc2)nc(N2CCNCC2)c1C#N (centres unmarked) [Example 263, 2-(3,5-Dicyano-4-ethyl-6-(piperazin-1-yl)pyridin-2-ylthio)-2-(thiophen-3-yl)acetamide]	316 to 1000	316 to 1000		
CCc1c(C#N)c(SC(C(N)=O)c2ccc(F)cc2F)nc(N2CC[C@H](O)C2)c1C#N (some centres unmarked) [Example 430]	316 to 1000		D (Category D: ≥6.5)	
CCc1c(C#N)c(SCc2ccc(N(C)S(C)(=O)=O)cc2)nc(N(C)CCN)c1C#N [Example 484, N-(4-(((6-((2-aminoethyl)(methyl)amino)-3,5-dicyano-4-ethylpyridin-2-yl)thio)methyl)phenyl)-N-methylmethanesulfonamide]	< 316		D (Category D: ≥6.5)	
CCc1c(C#N)c(SCc2ccc(N)cc2)nc(N2CCCN(C)CC2)c1C#N [Example 297, 2-((4-Aminobenzyl)thio)-4-ethyl-6-(4-methyl-1,4-diazepan-1-yl)pyridine-3,5-dicarbonitrile]	> 31600	316 to 1000		
CCc1c(C#N)c(SCc2ccc(NS(C)(=O)=O)cc2)nc(N(C)C)c1C#N [Example 287, N-(4-(((3,5-Dicyano-6-(dimethylamino)-4-ethylpyridin-2-yl)thio)methyl)phenyl) methanesulfonamide]	1000 to 31600	316 to 1000		
CCc1c(C#N)c(SCc2ccc(N(C)S(C)(=O)=O)cc2)nc(N2CCC(N3CCCC3)CC2)c1C#N [Example 582, N-(4-(((3,5-dicyano-4-ethyl-6-(4-(pyrrolidin-1-yl)piperidin-1-yl)pyridin-2-yl)thio)methyl)phenyl)-N-methylmethanesulfonamide]	< 316		D (Category D: ≥6.5)	
CCc1c(C#N)c(S[C@@H](C(N)=O)c2ccc(OC)cc2)nc(N2CC[C@H](O)C2)c1C#N [Example 422, (R)-2-((3,5-dicyano-4-ethyl-6-((S)-3-hydroxypyrrolidin-1-yl)pyridin-2-yl)thio)-2-(4-methoxyphenyl)acetamide]	< 316		D (Category D: ≥6.5)	
CN(CCO)c1nc(SC(C(N)=O)c2ccccc2)c(C#N)c(C2CC2)c1C#N (centres unmarked) [Example 386, 2-((3,5-Dicyano-4-cyclopropyl-6-((2-hydroxyethyl)(methyl)amino)pyridin-2-yl)thio)-2-phenylacetamide]	1000 to 31600	316 to 1000		
CCc1c(C#N)c(SC(C(N)=O)c2ccccc2)nc(N2CCC(NCCN)CC2)c1C#N (centres unmarked) [Example 645, 2-((6-(4-((2-aminoethyl)amino)piperidin-1-yl)-3,5-dicyano-4-ethylpyridin-2-yl)thio)-2-phenylacetamide dihydrochloride]	316 to 1000		D (Category D: ≥6.5)	
CCc1c(C#N)c(SCc2ccc(CNC(C)=O)cc2)nc(N2CCC(O)C2)c1C#N (centres unmarked) [Example 331, N-(4-(((3,5-Dicyano-4-ethyl-6-(3-hydroxypyrrolidin-1-yl)pyridin-2-yl)thio)methyl)benzyl)acetamide]	> 31600	316 to 1000		
CCc1c(C#N)c(SCc2ccccc2)nc(N2CCC(NC(=O)C(C)(C)N)CC2)c1C#N [Example 95, 2-Amino-N-(1-(6-(benzylthio)-3,5-dicyano-4-ethylpyridin-2-yl)piperidin-4-yl)-2-methylpropanamide, Formic Acid Salt]	1000 to 31600	316 to 1000		
CN(CC(=O)N(CCO)CCO)c1nc(SC(C(N)=O)c2ccccc2)c(C#N)c(C2CC2)c1C#N (centres unmarked) [Example 641, 2-((6-((2-amino-2-oxo-1-phenylethyl)thio)-3,5-dicyano-4-cyclopropylpyridin-2-yl)(methyl)amino)-N,N-bis(2-hydroxyethyl)acetamide]	1000 to 31600		D (Category D: ≥6.5)	
